In experiment [1] the target is T1, GLUT1 (Mus musculus, UniProt P17809).
T1 sequence (P17809 1-492): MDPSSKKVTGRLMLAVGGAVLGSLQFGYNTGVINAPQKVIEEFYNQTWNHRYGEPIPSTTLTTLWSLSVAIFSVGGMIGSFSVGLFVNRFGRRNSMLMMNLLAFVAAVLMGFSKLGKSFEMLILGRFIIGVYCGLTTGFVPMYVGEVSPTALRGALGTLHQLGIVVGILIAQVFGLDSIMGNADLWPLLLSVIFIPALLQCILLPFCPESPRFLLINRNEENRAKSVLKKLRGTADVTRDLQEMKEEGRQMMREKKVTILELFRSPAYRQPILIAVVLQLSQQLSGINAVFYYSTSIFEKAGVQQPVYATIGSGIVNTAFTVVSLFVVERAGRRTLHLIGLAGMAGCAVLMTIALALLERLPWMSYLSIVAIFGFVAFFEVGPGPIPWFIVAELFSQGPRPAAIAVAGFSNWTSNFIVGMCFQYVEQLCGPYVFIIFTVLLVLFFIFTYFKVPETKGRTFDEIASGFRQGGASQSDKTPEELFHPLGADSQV
Kind of experiment: [3H]-2-deoxyglucose uptake in L929 fibroblasts. It is filed as cell-based.

Experiment [2] deals with T1, GLUT1. Kind of experiment: dose-dependent competition of [3H]-2DG uptake in L929 fibroblasts. In kind it is cell-based.

In the case of `Cn1c(=O)c2c(ncn2C)n(C)c1=O` [caffeine], the IC50 at GLUT1 [1] is approximately 1400 µM.

In the case of `OC[C@H]1OC(O)[C@H](O)[C@@H](O)[C@@H]1O` (some centres unmarked) [glucose], the “dose-dependent competition of [3H]-2DG uptake in L929 fibroblasts” value at GLUT1 [2] was “glucose reduces 2DG uptake in a dose-dependent manner, and that caffeine adds to the inhibitory effects of glucose”.

Values taken from PMC6141003 (Biochimie, 2017).
